In ChEMBL document CHEMBL1152165, “Discovery of 1-benzoyl-3-cyanopyrrolo[1,2-a]quinolines as a new series of apoptosis inducers using a cell- and caspase-based high-throughput screening assay. Part 1: Structure-activity relationships of the 1- and 3-positions” (Bioorg Med Chem Lett, 2008):
Active and inactive are the calls of the source. No cut-off for these calls is given here.

Assays:
T47D [1] = assay: Induction of apoptosis in human T47D cells assessed as caspase activation after 24 hrs; assay type: functional, cell-based
HCT-116 [2] = assay: Induction of apoptosis in human HCT116 cells assessed as caspase activation after 24 hrs; assay type: functional, cell-based; details: HCT-116, 24 h
SNU-398 [3] = assay: Induction of apoptosis in human SNU398 cells assessed as caspase activation after 24 hrs; assay type: functional, cell-based; details: SNU-398, 24 h
T47D [4] = assay: Growth inhibition of human T47D cells; assay type: functional
HCT-116 [5] = assay: Growth inhibition of human HCT116 cells; assay type: functional
SNU-398 [6] = assay: Growth inhibition of human SNU398 cells; assay type: functional
SK-BR-3 = assay: Growth inhibition of human SKBR3 cells; assay type: functional
ZR-75-1 = assay: Growth inhibition of human ZR-75-1 cells; assay type: functional
BT-474 = assay: Growth inhibition of human BT474 cells; assay type: functional
DLD-1 = assay: Growth inhibition of human DLD1 cells; assay type: functional
HT-29 = assay: Growth inhibition of human HT-29 cells; assay type: functional
[7] = Growth inhibition of human H1299 cells; assay type: functional; details: NCI-H1299
K562 = assay: Growth inhibition of human K562 cells; assay type: functional
[8] = Growth inhibition of human NAMALWA cells; assay type: functional; details: NAMALVA
Raji = assay: Growth inhibition of human Raji cells; assay type: functional
HCT-116 [9] = assay: Cell cycle arrest in human HCT116 cells by accumulation at G2/M phase by flow cytometry; assay type: functional, cell-based
[10] = Inhibition of tubulin polymerization up to 50 uM
[11] = Inhibition of tubulin polymerization

EC50 (T47D [1]) [nM] | EC50 (HCT-116 [2]) [nM] | EC50 (SNU-398 [3]) [nM] | GI50 (T47D [4]) [nM] | GI50 (HCT-116 [5]) [nM] | GI50 (SNU-398 [6]) [nM] | SMILES | also measured
170 | 1700 | 1600 | – | – | – | COc1cccc(C(=O)c2cc(C#N)c3ccc4ccccc4n23)c1 | –
170 | 240 | 200 | 470 | 1200 | 420 | N#Cc1cc(C(=O)c2ccc(N)cc2)n2c1ccc1ccccc12 | –
160 | 550 | 350 | – | – | – | N#Cc1cc(C(O)c2ccc(-n3cccn3)cc2)n2c1ccc1ccccc12 (stereo not drawn) | –
930 | 4200 | 2700 | – | – | – | Cc1ccc(C(=O)c2cc(C#N)c3ccc4ccccc4n23)cc1 | –
2800 | > 10000 | > 10000 | – | – | – | N#Cc1cc(C(=O)c2ccc([N+](=O)[O-])cc2)n2c1ccc1ccccc12 | –
100 | 370 | 260 | – | – | – | CCN(CC)c1ccc(C(=O)c2cc(C#N)c3ccc4ccccc4n23)cc1 | –
78 | 5500 | 5200 | 70 | 5800 | 2000 | N#Cc1cc(C(=O)c2ccccc2)n2c1ccc1ccccc12 | GI50 (SK-BR-3): 70 nM; GI50 (ZR-75-1): 70 nM; GI50 (BT-474): 70 nM; GI50 (DLD-1): 1200 nM; GI50 (HT-29): 1200 nM; GI50 [7]: 1200 nM; GI50 (K562): 1200 nM; GI50 [8]: 1200 nM; GI50 (Raji): 1200 nM; Activity (HCT-116 [9]): Active; Activity [10]: inactive
300 | 580 | 510 | 75 | 250 | 140 | N#Cc1cc(C(=O)c2ccc(N3CCCC3)cc2)n2c1ccc1ccccc12 | –
690 | 3700 | 2600 | – | – | – | N#Cc1cc(C(=O)c2cccnc2)n2c1ccc1ccccc12 | –
210 | 320 | 300 | – | – | – | N#Cc1cc(C(O)c2ccc(N3CCCC3)cc2)n2c1ccc1ccccc12 (stereo not drawn) | –
> 10000 | > 10000 | > 10000 | – | – | – | CC(=O)c1cc(C(=O)c2ccc(C)cc2)n2c1ccc1ccccc12 | –
49 | > 10000 | > 10000 | – | – | – | N#Cc1cc(C(=O)c2ccc(Cl)cc2)n2c1ccc1ccccc12 | –
40 | 1900 | 1600 | – | – | – | N#Cc1cc(C(=O)c2ccccn2)n2c1ccc1ccccc12 | –
220 | 240 | 140 | – | – | – | COc1ccc(C(O)c2cc(C#N)c3ccc4ccccc4n23)cc1 (stereo not drawn) | –
280 | 280 | 180 | 71 | 490 | 120 | COc1ccc(C(=O)c2cc(C#N)c3ccc4ccccc4n23)cc1 | –
> 10000 | > 10000 | > 10000 | – | – | – | CCOC(=O)c1cc(C(=O)c2cccc(OC)c2)n2c1ccc1ccccc12 | –
> 10000 | > 10000 | > 10000 | – | – | – | N#Cc1cc(C(=O)c2ccc(N3CCNCC3)cc2)n2c1ccc1ccccc12 | –
41 | 96 | 57 | 72 | 240 | 36 | N#Cc1cc(C(=O)c2ccc(-n3cccn3)cc2)n2c1ccc1ccccc12 | IC50 [11]: 1000 nM
140 | 2500 | 2700 | 87 | 1600 | 730 | Cc1ccccc1C(=O)c1cc(C#N)c2ccc3ccccc3n12 | –
34 | 74 | 39 | 41 | 65 | 59 | N#Cc1cc(C(=O)c2ccc(-n3ccnc3)cc2)n2c1ccc1ccccc12 | Activity (HCT-116 [9]): Active; IC50 [11]: 5000 nM
36 | 1200 | 880 | – | – | – | N#Cc1cc(C(=O)c2ccc(F)cc2)n2c1ccc1ccccc12 | –
